One assay addresses T1, CD40:CD154 interaction (Homo sapiens, UniProt P29965).
T1 construct: made in house; host or cells: Pichia (CD40-Ig only)
T1 sequence (P29965 116-261 limits assumed): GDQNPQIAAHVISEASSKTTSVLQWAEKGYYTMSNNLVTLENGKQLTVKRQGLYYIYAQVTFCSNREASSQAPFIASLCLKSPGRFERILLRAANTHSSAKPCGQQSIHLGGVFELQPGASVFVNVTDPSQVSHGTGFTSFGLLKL
The assay is described as follows: Binding assay (ELISA): compound binds CD154 and inhibits binding of biotin-CD154 to immobilized CD40-Ig (Example 7). Conditions: compounds 12 and 14-21: 'considered to have' the IC50 range (not worded as 'shown'); read-out: IC50 for CD40:CD154 binding interruption. The text has this: (§1) IC50, as used herein, is the concentration at which a compound interrupts the interaction of a protein and its receptor to 50% interaction in the assay shown in Example 7 (for interruption of CD40:CD154 interaction) and Example 8 (for interruption of TNF-α:TNFRp60 interaction). Examples of such protein and receptor pairs are CD40:CD154 and TNF-α:TNFRp60.
Binding Assay to Assess whether a compound Binds CD154 and Inhibits CD40:CD154 Interaction
1) Ninety-six well plates of Nunc Maxisorp were coated with 100 μl of 5-10 μg/ml human CD40-Ig produced in Pichia cells, (in PBS pH 7.2) per well, covered with plate sealers (Costar, Cat. No. 3095) and stored overnight at 4° C.
2) The CD40-Ig-coated plates were shook out and blotted dry.
3) The CD40-Ig-coated plates were blocked with 300 μl per well of PBS (0.05% Tween-20, 1% BSA, pH 7.2) at RT for one hour or in the refrigerator for up to 3 weeks.
4) The CD40-Ig-coated plates were washed 3× with PBS+0.05% Tween-20 pH 7.4 with plate washer at RT.
5) The plates were optionally blotted dry.
6) Primary Screening of compounds: • a. Compounds were titrated in 100 mM Hepes+0.005% BSA pH 7.2 in Titertube (Bio-Rad Laboratories) and 50 μl of titrated compounds was then added into each well of the plate. IC50 parameters: • One 7 point curve per compound was generated where each point was run in triplicate. […] Fifty μl/well of 0.07-1.6 μg/ml biotin-CD154 in 100 mM Hepes+0.005% BSA (pH 7.2) was added per well. Final concentration of biotin-CD154 was […]. It was mixed with compound in each well in the plate. • c. The plates were covered with plate sealer and incubated for one-hour at RT.
7) The plates were washed 3× with plate washer with PBS+0.05% Tween-20 (pH 7.4) at RT.
8) The plates were optionally blotted dry.
9) 100 μl of a 1/300,000 dilution of HRP-Strep/Avidin (Jackson Immuno Research Code3 #016-030-084) was added to each well. Dilution buffer was: PBS+0.05% Tween-20. The plates were covered with plate sealer and incubated for one hour at room temperature.
10) The plates were washed with plate washer 3× at RT.
11) The plates were optionally blotted dry.
12) 100 μl/well of TMB(1-component) (Kirkegarrd & Perry Labs, Prod #50-76-04) was added to each well and incubated at RT about 10 min.
13) 100 μl/well of 0.18M H2SO4 was added to stop reaction in the plates.
14) The plates were read within 30 minutes of stopping the reaction at […] on a microplate reader (Molecular Devices Co.).
Compounds that bound to CD154 and blocked CD40:CD154 interaction prevented CD154 from binding to immobilized CD40-Ig and gave a low absorbance reading.
• 1. Total reaction: Reaction well contained 50 μl of 100 mM Hepes/0.005% BSA (no test compound) • 2. Positive control: Reaction well contained 10 μl of 1 mg/ml 5c8 (anti-CD154 mAb) and 50 μl of 100 mM Hepes/0.005% BSA. • 3. Blank control: Reaction well contained 100 μl 100 mM Hepes/0.005% BSA. • 4. Compound control: Titration series in triplicate of BIO-002108-00.
A general note: In an ELISA, binding on a coated surface is turned into a signal by an enzyme label.
As a reminder, the IC50 is the concentration that gives 50% inhibition. Take `O=C(NC1CCc2ccccc21)c1cc(-c2cc(C(=O)NC(C(=O)O)C3CCCCC3)nc(C(=O)N3CCCC3CN3CCCC3)c2)cc(C(=O)N2CCCC2CN2CCCC2)n1` (stereo not shown) [Compound 12]: the concentration for half-maximal inhibition (IC50) lay in the range of 50 to 125 µM.

With `O=C(NCCCc1ccc(Br)cc1)c1cc(-c2cc(C(=O)N[C@H](C(=O)O)C3CCCCC3)nc(C(=O)N3CCC[C@H]3CN3CCCC3)c2)cc(C(=O)N2CCC[C@H]2CN2CCCC2)n1` [Compound 14], the IC50 fell in the range of 50 to 125 µM.

Consider `O=C(NCCCCc1ccccc1)c1cc(-c2cc(C(=O)N[C@H](C(=O)O)C3CCCCC3)nc(C(=O)N3CCC[C@H]3CN3CCCC3)c2)cc(C(=O)N2CCC[C@H]2CN2CCCC2)n1` [Compound 15], for which the IC50 is less than 50 µM.

`O=C(NC/C=C/c1ccccc1)c1cc(-c2cc(C(=O)NC(C(=O)O)C3CCCCC3)nc(C(=O)N3CCCC3CN3CCCC3)c2)cc(C(=O)N2CCCC2CN2CCCC2)n1` (stereo not shown) [Compound 16]: the IC50 was in the range of 50 to 125 µM.

Turning to `CCC(C)C(NC(=O)c1cc(-c2cc(C(=O)NCc3ccccc3Br)nc(C(=O)N3CCCC3CN(C)C)c2)cc(C(=O)N2CCCC2CN(C)C)n1)C(=O)O` (stereo not shown) [Compound 17], the IC50 fell in the range of 50 to 125 µM.

Take `CCC(C)C(NC(=O)c1cc(-c2cc(C(=O)NCc3ccccc3Br)nc(C(=O)N3CCCC3CN(C)C3CCCCC3)c2)cc(C(=O)N2CCCC2CN(C)C2CCCCC2)n1)C(=O)O` (stereo not shown) [Compound 18]: the IC50 lay in the range of 50 to 125 µM.

For `CCC(C)C(NC(=O)c1cc(-c2cc(C(=O)NCc3ccccc3Br)nc(C(=O)N3CCCC3CN3CCCCC3)c2)cc(C(=O)N2CCCC2CN2CCCCC2)n1)C(=O)O` (stereo not shown) [Compound 19], the IC50 lay within 50 to 125 µM.

Consider `COC(=O)[C@@H](NC(=O)c1cc(-c2cc(C(=O)NCCCc3ccccc3)nc(C(=O)N3CCC[C@H]3CN3CCCC3)c2)cc(C(=O)N2CCC[C@H]2CN2CCCC2)n1)C1CCCCC1` [Compound 20], for which the IC50 was in the range of 50 to 125 µM.

In the case of `CC(C)(C)[C@H](NC(=O)c1cc(-c2cc(C(=O)NCCCc3ccccc3)nc(C(=O)N3CCC[C@H]3CN3CCCC3)c2)cc(C(=O)N2CCC[C@H]2CN2CCCC2)n1)C(=O)O` [Compound 21], the half-maximal inhibitory concentration (IC50) was in the range of 50 to 125 µM.

Staying with this assay, now noted: compounds 'shown to have' the IC50 range; assay of Example 7, top concentration 125 μM; read-out: IC50 for CD40:CD154 binding interruption.
`O=C(Nc1cccc(S(=O)(=O)Nc2cc3ccccc3cc2C(=O)O)c1)Nc1cccc(S(=O)(=O)Nc2cc3ccccc3cc2C(=O)O)c1` [BIO-002108-00, reference compound]: the IC50 is less than 50 µM.

In the case of `CCC(C)C(NC(=O)c1cc(-c2cc(C(=O)NCc3ccccc3Br)nc(C(=O)N3CCCC3CN3CCCC3)c2)cc(C(=O)N2CCCC2CN2CCCC2)n1)C(=O)O` (stereo not shown) [Compound 1], the IC50 was 50 to 125 µM.

For the compound `CCC(C)C(NC(=O)c1cc(-c2cc(C(=O)NCc3cccc(OC)c3OC)nc(C(=O)N3CCCC3CN3CCCC3)c2)cc(C(=O)N2CCCC2CN2CCCC2)n1)C(=O)O` (stereo not shown) [Compound 2], the IC50 is more than 125 µM.

Regarding `CCC(C)C(NC(=O)c1cc(-c2cc(C(=O)NC(C)(C)Cc3ccc(F)cc3)nc(C(=O)N3CCCC3CN3CCCC3)c2)cc(C(=O)N2CCCC2CN2CCCC2)n1)C(=O)O` (stereo not shown) [Compound 3], the IC50 was more than 125 µM.

As to `O=C(NCCCc1ccccc1)c1cc(-c2cc(C(=O)NC(C(=O)O)C3CCCCC3)nc(C(=O)N3CCCC3CN3CCCC3)c2)cc(C(=O)N2CCCC2CN2CCCC2)n1` (stereo not shown) [Compound 4], the IC50 was less than 50 µM.

Consider `O=C(NCCC(c1ccccc1)c1ccccc1)c1cc(-c2cc(C(=O)N[C@H](C(=O)O)C3CCCCC3)nc(C(=O)N3CCC[C@H]3CN3CCCC3)c2)cc(C(=O)N2CCC[C@H]2CN2CCCC2)n1` [Compound 5], for which the IC50 is less than 50 µM.

With `O=C(NCc1cccc(-c2ccccc2)c1)c1cc(-c2cc(C(=O)N[C@H](C(=O)O)C3CCCCC3)nc(C(=O)N3CCC[C@H]3CN3CCCC3)c2)cc(C(=O)N2CCC[C@H]2CN2CCCC2)n1` [Compound 6], the IC50 is less than 50 µM.

On to `O=C(NCCCc1ccc([N+](=O)[O-])cc1)c1cc(-c2cc(C(=O)NC(C(=O)O)C3CCCCC3)nc(C(=O)N3CCCC3CN3CCCC3)c2)cc(C(=O)N2CCCC2CN2CCCC2)n1` (stereo not shown) [Compound 7], for which the IC50 lay within 50 to 125 µM.

As for `Nc1ccc(CCCNC(=O)c2cc(-c3cc(C(=O)NC(C(=O)O)C4CCCCC4)nc(C(=O)N4CCCC4CN4CCCC4)c3)cc(C(=O)N3CCCC3CN3CCCC3)n2)cc1` (stereo not shown) [Compound 8], the IC50 is 50 to 125 µM.

For `Nc1cccc(C(CCNC(=O)c2cc(-c3cc(C(=O)NC(C(=O)O)C4CCCCC4)nc(C(=O)N4CCCC4CN4CCCC4)c3)cc(C(=O)N3CCCC3CN3CCCC3)n2)c2ccccc2)c1` (stereo not shown) [Compound 10], the IC50 was 50 to 125 µM.

On to `O=C(NCCC(c1ccccc1)c1ccc([N+](=O)[O-])cc1)c1cc(-c2cc(C(=O)NC(C(=O)O)C3CCCCC3)nc(C(=O)N3CCCC3CN3CCCC3)c2)cc(C(=O)N2CCCC2CN2CCCC2)n1` (stereo not shown) [Compound 11], for which the IC50 was less than 50 µM.

For `O=C(NCc1ccc2ccccc2c1)c1cc(-c2cc(C(=O)N[C@H](C(=O)O)C3CCCCC3)nc(C(=O)N3CCC[C@H]3CN3CCCC3)c2)cc(C(=O)N2CCC[C@H]2CN2CCCC2)n1` [Compound 13], the IC50 fell in the range of 50 to 125 µM.

The target of a further assay is T2, TNF-α:TNFRp60 interaction (Homo sapiens, UniProt P01375).
T2 construct: purchased R&D System
T2 sequence (P01375 77-233 limits assumed, species assumed): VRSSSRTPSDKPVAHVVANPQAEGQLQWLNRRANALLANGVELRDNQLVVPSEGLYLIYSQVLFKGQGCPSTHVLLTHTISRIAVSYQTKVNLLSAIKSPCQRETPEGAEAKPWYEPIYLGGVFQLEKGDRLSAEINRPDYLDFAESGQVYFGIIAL
The assay is described as follows: Binding assay (ELISA): compound inhibits binding of biotin-TNF-α to immobilized TNFRp60 (Example 8). Conditions: average value; read-out: IC50 for TNF-α:TNFRp60 binding interruption.
Description: as §1
Binding Assay to Assess whether a Compound Binds to TNF-α and Inhibits TNF-α/TNFRp60 Interaction
1) Ninety-six well plates of Nunc Maxisorp were coated with 100 μl/well of 0.6 ug/ml tumor necrosis factor receptor p60 (TNFRp60) (Browning, J. L.; Douglas, I.; Ngam-ek, A.; Bourdon, P. R.; Ehrenfels, B. N.; Miatkowski, K.; Zafari, M.; Yampaglia, A. M.; Lawton, P.; Meier, W.; Benjamin, C. P.; Hession, C. J. Immunol. 1995, 154, 33-46) in PBS, pH 7.2, covered with plate sealers (Costar, Cat. No. 3095) and stored overnight at 4° C.
2) The coated plates were shook out and blotted dry.
3) TNFRp60-coated plates were blocked with 300 μl per well of PBS (0.05% Tween-20, 1% BSA, made from media prep) at 4° C. for one hour. Plates were stored for 3 weeks at 4° C. […]
14) The plates were read within 30 minutes of adding stop reagent at […] by microplate reader (Molecular Devices Co.) […]
Compounds that blocked TNF-α/TNFRp60 interaction prevented TNF-α from binding to immobilized TNFRp60 and gave a low absorbance reading. […]
Regarding `O=C(Nc1cccc(S(=O)(=O)Nc2cc3ccccc3cc2C(=O)O)c1)Nc1cccc(S(=O)(=O)Nc2cc3ccccc3cc2C(=O)O)c1` [BIO-002108-00, reference compound], the IC50 was more than 125 µM.

These data come from US20070249682A1, “Novel CD40:CD154 binding interruptor compounds and use thereof to treat immunological complications” (priority 2000, published 2007).
